Active and inactive are the calls of the source.
Assays:
[1] = molecular target: T1, Long-chain-fatty-acid--CoA ligase 5 (Homo sapiens, UniProt Q9ULC5)
T1 sequence (Q9ULC5 whole entry): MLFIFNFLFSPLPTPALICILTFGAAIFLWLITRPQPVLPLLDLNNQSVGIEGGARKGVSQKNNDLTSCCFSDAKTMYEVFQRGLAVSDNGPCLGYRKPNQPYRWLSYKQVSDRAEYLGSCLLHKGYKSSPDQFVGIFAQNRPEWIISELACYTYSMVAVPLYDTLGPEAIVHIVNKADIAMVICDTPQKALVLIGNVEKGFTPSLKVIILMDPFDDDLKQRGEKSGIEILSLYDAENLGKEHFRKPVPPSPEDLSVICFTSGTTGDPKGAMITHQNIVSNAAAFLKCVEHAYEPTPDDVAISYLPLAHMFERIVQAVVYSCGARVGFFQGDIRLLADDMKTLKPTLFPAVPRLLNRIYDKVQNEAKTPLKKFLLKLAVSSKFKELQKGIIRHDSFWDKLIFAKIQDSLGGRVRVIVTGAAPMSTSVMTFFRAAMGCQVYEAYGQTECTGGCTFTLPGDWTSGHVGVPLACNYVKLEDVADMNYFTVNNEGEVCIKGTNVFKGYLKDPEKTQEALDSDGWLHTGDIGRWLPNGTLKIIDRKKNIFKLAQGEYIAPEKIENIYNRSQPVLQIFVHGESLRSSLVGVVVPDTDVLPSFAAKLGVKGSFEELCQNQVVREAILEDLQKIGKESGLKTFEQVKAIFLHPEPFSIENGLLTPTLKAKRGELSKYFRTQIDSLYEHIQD

Ephrin type-A receptor 1 = molecular target: T2, Ephrin type-A receptor 1 (Homo sapiens, UniProt P21709)
T2 sequence (P21709 whole entry): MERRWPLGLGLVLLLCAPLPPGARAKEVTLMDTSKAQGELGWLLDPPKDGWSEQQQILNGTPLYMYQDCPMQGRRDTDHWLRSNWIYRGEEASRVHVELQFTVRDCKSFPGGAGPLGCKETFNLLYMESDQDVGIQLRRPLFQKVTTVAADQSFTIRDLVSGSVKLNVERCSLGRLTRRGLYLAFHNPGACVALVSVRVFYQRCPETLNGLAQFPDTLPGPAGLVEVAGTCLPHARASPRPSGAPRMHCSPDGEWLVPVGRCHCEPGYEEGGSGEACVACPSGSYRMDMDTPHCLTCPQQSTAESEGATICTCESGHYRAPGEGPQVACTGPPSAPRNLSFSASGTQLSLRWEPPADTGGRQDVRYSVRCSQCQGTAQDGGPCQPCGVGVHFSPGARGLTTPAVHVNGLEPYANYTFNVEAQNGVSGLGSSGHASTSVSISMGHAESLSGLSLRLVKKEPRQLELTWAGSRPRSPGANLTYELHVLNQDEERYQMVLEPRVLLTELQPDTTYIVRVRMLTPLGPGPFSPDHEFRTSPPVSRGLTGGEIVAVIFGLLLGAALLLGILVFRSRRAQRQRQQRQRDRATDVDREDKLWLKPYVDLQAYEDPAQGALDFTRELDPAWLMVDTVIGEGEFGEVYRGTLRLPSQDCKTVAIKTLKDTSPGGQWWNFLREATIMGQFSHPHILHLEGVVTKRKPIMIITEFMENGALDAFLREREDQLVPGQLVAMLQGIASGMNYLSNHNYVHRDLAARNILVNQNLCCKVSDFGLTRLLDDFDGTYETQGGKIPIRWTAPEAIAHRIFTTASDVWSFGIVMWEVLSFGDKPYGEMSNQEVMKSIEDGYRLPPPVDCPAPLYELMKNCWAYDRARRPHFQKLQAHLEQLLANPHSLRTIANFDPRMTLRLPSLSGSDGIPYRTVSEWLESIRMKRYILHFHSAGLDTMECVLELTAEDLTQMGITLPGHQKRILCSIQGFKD

[2] = molecular target: Hepatocyte growth factor receptor (Homo sapiens, UniProt P08581)
[3] = molecular target: Serine/threonine-protein kinase pim-2 (Homo sapiens, UniProt Q9P1W9)
[4] = molecular target: Dual specificity testis-specific protein kinase 1 (Homo sapiens, UniProt Q15569)
[5] = molecular target: High affinity nerve growth factor receptor (Homo sapiens, UniProt P04629)
[6] = molecular target: Serine/threonine-protein kinase 24 (Homo sapiens, UniProt Q9Y6E0)
[7] = molecular target: Protein kinase C theta type (Homo sapiens, UniProt Q04759)
[8] = molecular target: Phosphatidylethanolamine-binding protein 1 (Homo sapiens, UniProt P30086)
[9] = molecular target: Cell division cycle 7-related protein kinase (Homo sapiens, UniProt O00311)
[10] = molecular target: G protein-coupled receptor kinase 6 (Homo sapiens, UniProt P43250)
[11] = molecular target: Choline-phosphate cytidylyltransferase A (Homo sapiens, UniProt P49585)

Measured: Kd
Further: in the data inactive means no Kd found up to 30 µM.

Choline-phosphate cytidylyltransferase A, sequence (P49585 whole entry): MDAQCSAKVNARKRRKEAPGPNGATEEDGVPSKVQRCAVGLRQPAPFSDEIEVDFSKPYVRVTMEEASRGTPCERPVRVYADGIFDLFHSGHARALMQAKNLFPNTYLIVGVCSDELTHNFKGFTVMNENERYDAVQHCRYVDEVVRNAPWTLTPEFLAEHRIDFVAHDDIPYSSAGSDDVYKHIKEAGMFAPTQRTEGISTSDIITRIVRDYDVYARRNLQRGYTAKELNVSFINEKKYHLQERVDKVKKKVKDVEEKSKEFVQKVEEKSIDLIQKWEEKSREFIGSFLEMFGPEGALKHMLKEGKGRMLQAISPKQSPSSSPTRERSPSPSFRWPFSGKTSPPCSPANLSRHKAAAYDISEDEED
Serine/threonine-protein kinase pim-2, sequence (Q9P1W9 whole entry): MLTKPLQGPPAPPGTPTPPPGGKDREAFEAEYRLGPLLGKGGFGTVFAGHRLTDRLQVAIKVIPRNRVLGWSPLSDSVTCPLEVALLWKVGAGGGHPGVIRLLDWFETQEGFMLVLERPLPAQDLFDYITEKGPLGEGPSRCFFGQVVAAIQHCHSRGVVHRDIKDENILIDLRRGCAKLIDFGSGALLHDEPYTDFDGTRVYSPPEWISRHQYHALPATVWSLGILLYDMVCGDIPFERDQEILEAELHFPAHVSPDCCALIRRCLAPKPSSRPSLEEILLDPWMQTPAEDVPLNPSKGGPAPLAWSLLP
Dual specificity testis-specific protein kinase 1, sequence (Q15569 whole entry): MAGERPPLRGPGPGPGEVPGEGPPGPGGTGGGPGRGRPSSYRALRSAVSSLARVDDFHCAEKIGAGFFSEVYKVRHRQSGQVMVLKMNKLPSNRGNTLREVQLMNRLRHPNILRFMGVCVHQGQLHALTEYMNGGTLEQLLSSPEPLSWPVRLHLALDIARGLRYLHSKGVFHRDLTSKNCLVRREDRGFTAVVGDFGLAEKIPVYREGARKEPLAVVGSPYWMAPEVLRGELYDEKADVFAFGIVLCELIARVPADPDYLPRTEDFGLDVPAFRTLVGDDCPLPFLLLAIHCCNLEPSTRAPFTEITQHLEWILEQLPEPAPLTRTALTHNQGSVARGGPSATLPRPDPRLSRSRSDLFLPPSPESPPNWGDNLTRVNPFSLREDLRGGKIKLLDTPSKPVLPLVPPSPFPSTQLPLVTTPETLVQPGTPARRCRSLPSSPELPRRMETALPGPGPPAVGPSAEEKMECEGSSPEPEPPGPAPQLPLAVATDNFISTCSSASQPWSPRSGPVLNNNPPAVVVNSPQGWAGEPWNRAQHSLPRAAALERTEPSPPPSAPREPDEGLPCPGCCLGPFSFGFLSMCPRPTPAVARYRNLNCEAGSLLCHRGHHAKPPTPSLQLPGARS
Serine/threonine-protein kinase 24, sequence (Q9Y6E0 whole entry): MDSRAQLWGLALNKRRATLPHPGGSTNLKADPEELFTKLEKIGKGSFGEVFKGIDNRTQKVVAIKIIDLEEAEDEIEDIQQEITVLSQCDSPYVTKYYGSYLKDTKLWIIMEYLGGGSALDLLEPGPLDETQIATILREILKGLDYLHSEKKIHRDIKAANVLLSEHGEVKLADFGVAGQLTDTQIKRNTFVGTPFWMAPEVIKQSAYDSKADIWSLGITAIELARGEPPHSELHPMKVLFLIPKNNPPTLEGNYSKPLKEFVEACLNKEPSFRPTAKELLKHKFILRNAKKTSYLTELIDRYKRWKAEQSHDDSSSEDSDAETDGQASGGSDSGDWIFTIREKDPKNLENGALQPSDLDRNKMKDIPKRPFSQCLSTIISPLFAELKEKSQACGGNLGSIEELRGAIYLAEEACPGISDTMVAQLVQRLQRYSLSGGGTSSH
Cell division cycle 7-related protein kinase, sequence (O00311 whole entry): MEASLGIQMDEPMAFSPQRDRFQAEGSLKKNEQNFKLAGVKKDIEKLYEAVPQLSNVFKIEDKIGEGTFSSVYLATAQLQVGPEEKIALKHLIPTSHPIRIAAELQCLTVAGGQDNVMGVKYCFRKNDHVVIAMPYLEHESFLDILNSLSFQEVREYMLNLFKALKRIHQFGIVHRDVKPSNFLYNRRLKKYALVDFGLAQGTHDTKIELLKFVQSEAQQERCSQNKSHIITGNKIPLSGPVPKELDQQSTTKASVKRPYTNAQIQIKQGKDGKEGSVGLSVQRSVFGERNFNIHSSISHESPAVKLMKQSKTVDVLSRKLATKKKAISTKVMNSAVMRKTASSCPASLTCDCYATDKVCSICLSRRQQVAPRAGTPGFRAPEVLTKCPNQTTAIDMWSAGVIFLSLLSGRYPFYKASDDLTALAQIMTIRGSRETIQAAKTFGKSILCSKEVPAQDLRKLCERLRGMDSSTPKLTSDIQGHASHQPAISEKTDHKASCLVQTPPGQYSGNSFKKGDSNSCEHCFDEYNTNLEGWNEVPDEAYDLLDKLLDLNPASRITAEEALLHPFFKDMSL
G protein-coupled receptor kinase 6, sequence (P43250 whole entry): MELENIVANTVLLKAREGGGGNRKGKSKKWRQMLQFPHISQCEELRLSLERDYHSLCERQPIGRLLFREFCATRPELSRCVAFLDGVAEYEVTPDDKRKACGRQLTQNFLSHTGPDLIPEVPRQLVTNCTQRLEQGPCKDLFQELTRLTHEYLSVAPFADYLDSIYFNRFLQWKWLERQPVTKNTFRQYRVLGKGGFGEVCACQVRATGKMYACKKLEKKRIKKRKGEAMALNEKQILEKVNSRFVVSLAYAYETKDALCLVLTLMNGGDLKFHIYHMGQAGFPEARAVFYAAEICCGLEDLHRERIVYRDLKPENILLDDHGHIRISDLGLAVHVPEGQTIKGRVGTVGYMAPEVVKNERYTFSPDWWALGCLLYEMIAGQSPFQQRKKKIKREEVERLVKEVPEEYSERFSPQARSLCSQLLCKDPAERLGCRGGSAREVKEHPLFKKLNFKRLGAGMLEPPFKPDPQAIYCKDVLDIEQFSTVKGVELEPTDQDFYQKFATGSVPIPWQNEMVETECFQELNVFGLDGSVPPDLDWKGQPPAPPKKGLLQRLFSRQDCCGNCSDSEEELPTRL
Protein kinase C theta type, sequence (Q04759 whole entry): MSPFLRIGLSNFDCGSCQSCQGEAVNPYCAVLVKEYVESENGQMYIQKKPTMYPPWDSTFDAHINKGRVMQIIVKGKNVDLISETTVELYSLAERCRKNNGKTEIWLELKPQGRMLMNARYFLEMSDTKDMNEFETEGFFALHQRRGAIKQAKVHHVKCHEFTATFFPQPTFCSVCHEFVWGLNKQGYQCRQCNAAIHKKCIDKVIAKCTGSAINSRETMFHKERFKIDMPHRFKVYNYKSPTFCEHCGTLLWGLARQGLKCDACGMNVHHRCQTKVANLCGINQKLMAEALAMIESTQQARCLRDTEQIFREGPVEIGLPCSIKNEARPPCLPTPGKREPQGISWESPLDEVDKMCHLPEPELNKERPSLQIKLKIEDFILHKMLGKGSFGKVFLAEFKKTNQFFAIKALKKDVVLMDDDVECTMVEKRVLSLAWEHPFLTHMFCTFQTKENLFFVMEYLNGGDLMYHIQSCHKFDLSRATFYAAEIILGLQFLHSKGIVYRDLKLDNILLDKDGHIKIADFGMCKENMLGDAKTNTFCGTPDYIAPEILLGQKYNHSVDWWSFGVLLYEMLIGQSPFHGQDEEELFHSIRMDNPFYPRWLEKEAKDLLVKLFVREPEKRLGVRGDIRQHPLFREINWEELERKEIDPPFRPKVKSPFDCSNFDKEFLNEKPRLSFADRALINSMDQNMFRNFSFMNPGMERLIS
Hepatocyte growth factor receptor, sequence (P08581 whole entry): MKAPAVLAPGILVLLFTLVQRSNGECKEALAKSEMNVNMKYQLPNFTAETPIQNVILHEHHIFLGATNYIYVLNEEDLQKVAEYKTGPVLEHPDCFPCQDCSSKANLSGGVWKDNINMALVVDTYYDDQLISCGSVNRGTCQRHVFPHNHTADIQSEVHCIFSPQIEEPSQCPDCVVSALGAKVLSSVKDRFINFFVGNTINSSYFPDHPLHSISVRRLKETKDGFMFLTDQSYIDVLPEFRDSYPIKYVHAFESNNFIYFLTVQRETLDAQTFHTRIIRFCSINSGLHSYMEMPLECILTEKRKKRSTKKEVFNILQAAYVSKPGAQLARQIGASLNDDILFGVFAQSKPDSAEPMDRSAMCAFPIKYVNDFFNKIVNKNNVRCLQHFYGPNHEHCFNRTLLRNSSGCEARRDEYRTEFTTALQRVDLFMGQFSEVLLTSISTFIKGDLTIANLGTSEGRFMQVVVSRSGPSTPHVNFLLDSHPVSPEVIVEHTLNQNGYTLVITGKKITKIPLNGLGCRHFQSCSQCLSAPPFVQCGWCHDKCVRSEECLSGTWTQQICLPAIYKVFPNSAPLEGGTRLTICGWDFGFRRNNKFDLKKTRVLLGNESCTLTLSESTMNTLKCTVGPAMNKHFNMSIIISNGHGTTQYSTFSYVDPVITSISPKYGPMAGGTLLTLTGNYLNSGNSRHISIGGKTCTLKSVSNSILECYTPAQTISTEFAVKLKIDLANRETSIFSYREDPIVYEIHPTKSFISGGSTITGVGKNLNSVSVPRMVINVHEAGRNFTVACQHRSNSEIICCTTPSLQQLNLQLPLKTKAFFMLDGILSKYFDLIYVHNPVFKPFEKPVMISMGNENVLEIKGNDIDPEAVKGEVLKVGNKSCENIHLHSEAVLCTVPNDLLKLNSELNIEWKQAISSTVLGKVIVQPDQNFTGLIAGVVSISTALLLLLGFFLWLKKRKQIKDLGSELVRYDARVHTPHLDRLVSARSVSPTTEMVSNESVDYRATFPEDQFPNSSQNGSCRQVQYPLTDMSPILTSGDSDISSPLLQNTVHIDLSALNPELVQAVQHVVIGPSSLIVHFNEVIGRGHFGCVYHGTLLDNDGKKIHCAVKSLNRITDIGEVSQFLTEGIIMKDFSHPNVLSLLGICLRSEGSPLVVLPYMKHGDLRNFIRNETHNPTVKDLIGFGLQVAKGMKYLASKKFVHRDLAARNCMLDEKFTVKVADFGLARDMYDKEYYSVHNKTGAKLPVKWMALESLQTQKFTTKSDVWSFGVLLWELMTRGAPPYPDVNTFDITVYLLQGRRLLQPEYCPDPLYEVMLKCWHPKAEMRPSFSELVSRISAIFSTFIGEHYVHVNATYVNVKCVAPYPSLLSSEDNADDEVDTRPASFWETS

Cn1cc(-c2ccc(F)c(C(F)(F)F)c2)nc1C1CCN(c2ncnc3[nH]ncc23)CC1 [LY-2584702]
inactive: [1] > 30 µM | Ephrin type-A receptor 1 > 30 µM | [2] > 30 µM | [3] > 30 µM | [4] > 30 µM | [5] > 30 µM | [6] > 30 µM | [7] > 30 µM | [8] > 30 µM

Cn1ncc(Cl)c1-c1cc(C(=O)N[C@H](CN)Cc2cccc(F)c2)sc1Cl [AFURESERTIB]
inactive: [9] > 30 µM | Ephrin type-A receptor 1 > 30 µM | [3] > 30 µM | [4] > 30 µM | [5] > 30 µM | [7] > 30 µM | [8] > 30 µM

CCn1c(-c2nonc2N)nc2c(C#CC(C)(C)O)ncc(OC[C@H]3CCCNC3)c21 [GSK-690693]
inactive: [1] > 30 µM | [8] > 30 µM

CNC(=O)c1ccc(-c2cnc3ncc(Cc4ccc5ncccc5c4)n3n2)cc1F [CAPMATINIB]
inactive: [9] > 30 µM | Ephrin type-A receptor 1 > 30 µM | [3] > 30 µM | [4] > 30 µM | [5] > 30 µM | [7] > 30 µM | [8] > 30 µM

COC(=O)[C@@]1(O)C[C@H]2O[C@]1(C)n1c3ccccc3c3c4c(c5c6ccccc6n2c5c31)C(=O)NC4 [K-252A]
inactive: [1] > 30 µM | Ephrin type-A receptor 1 > 30 µM | [2] > 30 µM | [3] > 30 µM | [4] > 30 µM | [6] > 30 µM

COc1ccc(-c2ccc3c(N4CCOC[C@@H]4C)nc(N4CCOC[C@@H]4C)nc3n2)cc1CO [AZD-8055]
inactive: Ephrin type-A receptor 1 > 30 µM | [2] > 30 µM | [3] > 30 µM | [4] > 30 µM | [10] > 30 µM | [5] > 30 µM | [6] > 30 µM | [7] > 30 µM | [8] > 30 µM

C[C@@H](Nc1cc(F)cc(F)c1)c1cc(C(=O)N(C)C)cc2c(=O)cc(N3CCOCC3)oc12 [AZD-8186]
inactive: [1] > 30 µM | [9] > 30 µM | Ephrin type-A receptor 1 > 30 µM | [2] > 30 µM | [4] > 30 µM | [5] > 30 µM | [6] > 30 µM

Nc1nc(N)c2nc(-c3cccc(O)c3)c(-c3cccc(O)c3)nc2n1 [TG100-115]
inactive: [1] > 30 µM | [10] > 30 µM

CN1CCN(c2ccc3nc(-c4c(N)c5c(F)cccc5[nH]c4=O)[nH]c3c2)CC1 [DOVITINIB]
inactive: [11] > 30 µM | [10] > 30 µM

C1=C/COCc2cc(ccc2OCCN2CCCC2)Nc2nccc(n2)-c2cccc(c2)COC/1 [PACRITINIB]
inactive: [2] > 30 µM | [5] > 30 µM | [6] > 30 µM | [8] > 30 µM

CCc1cnn2c(NCc3ccc[n+]([O-])c3)cc(N3CCCC[C@H]3CCO)nc12 [DINACICLIB]
inactive: [1] > 30 µM | Ephrin type-A receptor 1 > 30 µM | [11] > 30 µM | [3] > 30 µM | [4] > 30 µM | [10] > 30 µM | [6] > 30 µM | [8] > 30 µM

CNC(=O)c1ccc(C)c(-n2c(C)cc(OCc3ccc(F)cc3F)c(Br)c2=O)c1 [PH-797804]
inactive: [1] > 30 µM | Ephrin type-A receptor 1 > 30 µM | [2] > 30 µM | [4] > 30 µM | [8] > 30 µM

C[C@@H](c1ccc2nccn2c1)n1nnc2ncc(-c3cnn(C)c3)nc21 [SAVOLITINIB]
inactive: [1] > 30 µM | [4] > 30 µM | [6] > 30 µM | [8] > 30 µM

COc1cc(N2CCC(N3CCN(C)CC3)CC2)ccc1Nc1ncnc(Nc2ccccc2S(=O)(=O)C(C)C)n1 [ASP-3026]
inactive: [11] > 30 µM | [2] > 30 µM | [3] > 30 µM | [4] > 30 µM | [10] > 30 µM | [5] > 30 µM | [6] > 30 µM | [7] > 30 µM | [8] > 30 µM

Cc1nc(N)sc1-c1ccnc(Nc2ccc(N3CCOCC3)cc2)n1 [CYC-116]
inactive: [11] > 30 µM | [6] > 30 µM | [8] > 30 µM

O=c1sn(-c2cccc3ccccc23)c(=O)n1Cc1ccccc1 [TIDEGLUSIB]
inactive: [1] > 30 µM | [9] > 30 µM | Ephrin type-A receptor 1 > 30 µM | [4] > 30 µM | [10] > 30 µM | [5] > 30 µM | [6] > 30 µM | [7] > 30 µM

CN(C)C(=O)c1cc2cnc(Nc3ccc(N4CCNCC4)cn3)nc2n1C1CCCC1 [RIBOCICLIB]
inactive: Ephrin type-A receptor 1 > 30 µM | [11] > 30 µM | [2] > 30 µM | [3] > 30 µM | [4] > 30 µM | [10] > 30 µM | [5] > 30 µM | [6] > 30 µM | [8] > 30 µM

Cc1cn(-c2cc(NC(=O)c3ccc(C)c(Nc4nccc(-c5cccnc5)n4)c3)cc(C(F)(F)F)c2)cn1 [NILOTINIB]
inactive: [9] > 30 µM | [10] > 30 µM | [8] > 30 µM

CN1N=C(N)c2cn([C@@H]3O[C@H](COP(=O)(O)O)[C@@H](O)[C@H]3O)c3ncnc1c23 [TRICIRIBINE PHOSPHATE]
inactive: [9] > 30 µM | Ephrin type-A receptor 1 > 30 µM | [11] > 30 µM | [2] > 30 µM | [10] > 30 µM | [5] > 30 µM | [6] > 30 µM | [7] > 30 µM | [8] > 30 µM

Reference: ChEMBL document CHEMBL3991601, “The target landscape of clinical kinase drugs” (Science, 2017)
